Results: US7294496B1, “Cloned human lysophospholipase” (The Regents of the University of California, priority 2000, dated 2007)
Like-named read-outs stand apart in the source and are kept apart here.

Key:
[1] = target: T1, human recombinant LysoPLA (Homo sapiens, UniProt O75608, F152L); format: biochemical
T1 construct: made in house; host or cells: E. coli BL21(DE3)

[2] = target: mouse LysoPLA (Mus musculus, UniProt P97823); test: Inhibition of mouse LysoPLA; format: biochemical
Experimental: Various concentrations of each inhibitor (BioMol) were prepared in DMSO. 5 μl of each inhibitor was added to 480 μl of LysoPC substrate (125 μM Ly-soPC in the assay buffer). Enzyme (either mouse or human PLA) was added to the substrate-inhibitor mixture to start the reaction, which was incubated at 40° C. for 30 min. Control experiments were performed with the same amount of enzyme with 5 μl DMSO in the incubation mixture. The reversibility of the inhibition was tested by pre-incubation of the enzyme in the presence or absence of the inhibitor, followed by overnight dialysis in the assay buffer. The recovery of the enzyme activity as a function of time was then followed. Each data point represents an average of duplicates.

[3] = mouse enzyme, 125 μM LysoPC, similar results as human enzyme

T1 sequence (O75608 whole entry F152L): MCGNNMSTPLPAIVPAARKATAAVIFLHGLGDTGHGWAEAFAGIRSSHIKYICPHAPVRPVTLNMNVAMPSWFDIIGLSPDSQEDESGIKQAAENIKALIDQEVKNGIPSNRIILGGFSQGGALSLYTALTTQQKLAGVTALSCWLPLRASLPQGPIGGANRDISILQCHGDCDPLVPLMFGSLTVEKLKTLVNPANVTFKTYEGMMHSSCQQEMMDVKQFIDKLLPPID
Sequence of mouse LysoPLA (P97823 whole entry): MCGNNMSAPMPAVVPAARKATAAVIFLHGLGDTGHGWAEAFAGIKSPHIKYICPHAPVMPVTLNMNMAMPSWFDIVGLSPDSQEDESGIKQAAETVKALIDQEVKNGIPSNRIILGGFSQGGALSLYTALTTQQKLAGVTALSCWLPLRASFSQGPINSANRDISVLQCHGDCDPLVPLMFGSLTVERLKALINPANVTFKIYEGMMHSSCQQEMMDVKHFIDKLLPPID

| SMILES | inhibition of LysoPLA activity (in words) ([1]; human enzyme, 125 μM LysoPC) | inhibition of LysoPLA activity (in words) [2, 3] | inhibition of LysoPLA activity (in words) [1] | inhibition of LysoPLA activity (in words) [2] |
| --- | --- | --- | --- | --- |
| CCCCCCCCCCCCCCCC(=O)C(F)(F)F [PACOCF3, palmitoyl tri£uoromethyl ketone] | neither of them inhibited the LysoPLA activity well | neither of them inhibited the LysoPLA activity well | – | – |
| O=C1O/C(=C/Br)CCC1c1cccc2ccccc12 (stereo not drawn) [BEL, bromoenol lactone] | neither of them inhibited the LysoPLA activity well | neither of them inhibited the LysoPLA activity well | – | – |
| CCCCCCCCCCCCCCCCOC[C@@H](O)COP(=O)([O-])OCC[N+](C)(C)C [LysoPAF] | – | – | not a good inhibitor | not a good inhibitor |
